Laboratory results from US11072617B2, “Bicyclic sulfones and sulfoxides and methods of use thereof” (Genentech, Inc., priority 2017, dated 2021).

Molecular target: human RIP1 kinase domain (2-375) (Homo sapiens (Human), UniProt Q13546)
Assay: RIP1 kinase inhibition biochemical assay (Transcreener ADP, fluorescence polarization)
Conditions: Ki app from tight-binding Morrison equation; 50 nM enzyme, 50 uM ATP, 2 hours incubation
Outline: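 Baculovirus-expressed human RIP1 kinase domain (2-375), 50 nM, incubated 2 h with compounds in pH 7.5 Hepes, 30 mM MgCl2, 50 uM ATP, 0.5% DMSO. ADP detected by Transcreener fluorescence-polarization tracer displacement; Ki^app from Morrison tight-binding fit.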

Chain of human RIP1 kinase domain (2-375) (Q13546 2-375): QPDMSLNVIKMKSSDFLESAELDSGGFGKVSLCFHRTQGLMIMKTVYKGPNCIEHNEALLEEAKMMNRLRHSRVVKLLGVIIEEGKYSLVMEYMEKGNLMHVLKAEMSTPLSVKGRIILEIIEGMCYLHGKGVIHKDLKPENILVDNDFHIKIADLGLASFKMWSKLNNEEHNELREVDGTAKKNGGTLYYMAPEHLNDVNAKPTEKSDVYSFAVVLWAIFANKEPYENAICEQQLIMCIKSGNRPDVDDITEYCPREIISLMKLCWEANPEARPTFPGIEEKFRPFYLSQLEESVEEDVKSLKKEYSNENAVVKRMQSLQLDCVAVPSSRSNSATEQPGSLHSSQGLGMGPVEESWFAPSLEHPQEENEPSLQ

Compound | Ki
O=S(=O)(c1nc2n(n1)[C@H](c1cccc(F)c1)C[C@@H]2F)[C@H]1C[C@@H]1F (single isomer, unassigned) [Example 141] | < 0.005 µM
[O-][S@@+](c1nc2n(n1)[C@H](c1ccccc1)C[C@@H]2F)C(F)(F)F (single isomer, unassigned) [Example 180] | 0.3 µM
O=S(=O)(c1nc2n(n1)[C@H](c1cccc(Cl)c1F)C[C@@H]2F)[C@H]1C[C@@H]1F [Example 219, (5S,7S)-5-(3-chloro-2-fluoro-phenyl)-7-fluoro-2-[(1S,2S)-2-fluorocyclopropyl]sulfonyl-6,7-dihydro-5H-pyrrolo[1,2-b][1,2,4]triazole] | 0.025 µM
N#CC1CC1S(=O)(=O)c1nc2n(n1)[C@H](c1ccccc1)C[C@@H]2F (stereo in doubt) [Example 221, (1S,2S)-2-[[(5S,7S)-7-fluoro-5-phenyl-6,7-dihydro-5H-pyrrolo[1,2-b][1,2,4]triazol-2-yl]sulfonyl]cyclopropanecarbonitrile] | 0.018 µM
O=S(=O)(c1nc2n(n1)[C@H](c1ccccc1F)C[C@@H]2F)[C@H]1CC1(F)F (single isomer, unassigned) [Example 119] | 0.007 µM
[O-][S+](CC(F)(F)F)c1nc2n(n1)C(c1ccccc1)CC2 (stereo not drawn) [Example 177, 5-Phenyl-2-(2,2,2-trifluoroethylsulfinyl)-6,7-dihydro-5H-pyrrolo[1,2-b][1,2,4]triazole] | 0.057 µM
C[C@H](F)S(=O)(=O)c1nc2n(n1)[C@H](c1ccccc1)C[C@@H]2F (single isomer, unassigned) [Example 160] | 0.018 µM
[O-][S+](c1nc2n(n1)[C@H](c1cc(F)cc(F)c1)CC2)C(F)F (stereo in doubt) [Example 173, (5S)-2-[(S)-difluoromethylsulfinyl]-5-(3,5-difluorophenyl)-6,7-dihydro-5H-pyrrolo[1,2-b][1,2,4]triazole] | 0.019 µM
O=S(=O)(c1nc2n(n1)[C@H](c1cc(F)ccc1F)C[C@@H]2F)C1CC1F (stereo in doubt) [Example 201, (5S,7S)-5-(2,5-difluorophenyl)-7-fluoro-2-[(1S,2S)-2-fluorocyclopropyl]sulfonyl-6,7-dihydro-5H-pyrrolo[1,2-b][1,2,4]triazole] | 0.025 µM
O=S(=O)(c1nc2n(n1)[C@H](c1cccc(Cl)c1)C[C@@H]2F)C(F)F (single isomer, unassigned) [Example 61] | 0.039 µM
[O-][S+](c1nc2n(n1)[C@H](c1ccccc1)C[C@@H]2F)C1CC1(F)F (stereo partly drawn) [Example 117, (5S,7S)-2-((2,2-difluorocyclopropyl)sulfinyl)-7-fluoro-5-phenyl-6,7-dihydro-5H-pyrrolo[1,2-b][1,2,4]triazole] | 0.012 µM
O=S(=O)(c1nc2n(n1)[C@H](c1ccccc1)C[C@@H]2F)[C@@H]1C[C@H]1F (single isomer, unassigned) [Example 145] | 0.005 µM

The next lines start with the values.

Ki | Compound
< 0.005 µM | O=S(=O)(c1nc2n(n1)[C@H](c1c(F)cccc1F)C[C@@H]2F)C1CC1(F)F (stereo partly drawn) [Example 123, (5S,7S)-2-(2,2-difluorocyclopropyl)sulfonyl-5-(2,6-difluorophenyl)-7-fluoro-6,7-dihydro-5H-pyrrolo[1,2-b][1,2,4]triazole]
0.004 µM | O=S(=O)(c1nc2n(n1)[C@H](c1ccccc1)C[C@@H]2F)C(F)(F)F (single isomer, unassigned) [Example 137]
< 0.005 µM | [O-][S@@+](CF)c1nc2n(n1)[C@H](c1c(F)cccc1F)C[C@@H]2F (single isomer, unassigned) [Example 80]
0.003 µM | [O-][S@+](c1nc2n(n1)[C@H](c1ccccc1)C[C@@H]2F)C(F)F [Example 22, (5S,7S)-2-[(R)-difluoromethylsulfinyl]-7-fluoro-5-phenyl-6,7-dihydro-5H-pyrrolo[1,2-b][1,2,4]triazole]
0.004 µM | O=S(=O)(c1nc2n(n1)[C@H](c1ccccc1)C[C@@H]2F)[C@@H]1CC1(F)F (single isomer, unassigned) [Example 131]
< 0.005 µM | [O-][S@@+](CF)c1nc2n(n1)[C@H](c1cccc(F)c1F)C[C@@H]2F (single isomer, unassigned) [Example 76]
